Broadly, the Ki is the equilibrium dissociation constant of an inhibitor or competing ligand from its target. Higher therefore signals a looser hold on the target. For orientation: IC50 means the concentration needed to halve the response being measured.

For assay [1], the target named is T1, human adenosine receptor A1 (A1R) (Homo sapiens, UniProt P30542).
T1 construct: host or cells: CHO cells (membrane homogenates)
T1 sequence (P30542 1-326): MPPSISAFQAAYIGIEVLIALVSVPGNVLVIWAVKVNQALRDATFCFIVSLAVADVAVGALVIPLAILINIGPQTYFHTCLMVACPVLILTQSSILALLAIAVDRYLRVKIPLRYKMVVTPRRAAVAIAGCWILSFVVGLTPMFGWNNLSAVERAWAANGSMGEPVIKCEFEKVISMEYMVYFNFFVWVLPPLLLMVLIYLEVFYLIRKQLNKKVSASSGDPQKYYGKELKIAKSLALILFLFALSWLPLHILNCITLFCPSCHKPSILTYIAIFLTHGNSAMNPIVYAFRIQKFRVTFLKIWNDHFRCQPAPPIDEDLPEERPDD
The assay is described as follows: Adenosine receptor binding assay, radioligand competitive binding, [3H]DPCPX. To be noted: membrane homogenates from CHO cells transfected with A1R, 1 nM [3H]DPCPX. On the procedure:
(§1) Binding affinity of test compounds to four human adenosine receptors, A1, A2A, A2B and A3 was determined in radioligand competitive binding assay (conducted by Cerep, France) using following protocols. For A1 receptor (A1R), membrane homogenates from CHO cells transfected with A1R were incubated for 60 min at 22° C. with 1 nM [3H]DPCPX in the absence or presence of the test compound in a buffer containing 50 mM Tris-HCl (pH 7.4), 5 mM MgCl2, 1 mM EDTA/Tris and 2 UI/mL ADA. For A2AR, membrane homogenates from HEK293 cells transfected with A2AR were incubated for 120 min at 22° C. with 6 nM [3H]CGS21680 in the absence or presence of the test compound in a buffer containing 50 mM Tris-HCl (pH 7.4), 10 mM MgCl2, and 2 UI/mL ADA. For A2B receptor (A2BR), membrane homogenates from HEK293 cells transfected with A2BR were incubated for 60 min at 22° C. with 5 nM [3H]CPX in the absence or presence of the test compound in a buffer containing 10 mM Hepes/Tris (pH 7), 1 mM MgCl2, and 1 mM EDTA. For A3 receptor (A3R), membrane homogenates from HEK293 cells transfected with A3R were incubated for 120 min at 22° C. with 0.15 nM [125I]AB-MECA in the absence or presence of the test compound in a buffer containing 50 mM Tris-HCl (pH 7.4), 5 mM MgCl2, 1 mM EDTA and 2 UI/mL ADA. Nonspecific binding was determined in the presence of unlabeled 1 μM DPCPX, 10 μM NECA, 100 μM NECA, and 1 μM IB-MECA in A1R, A2AR, A2BR, A3R binding assays, respectively. Following incubation, the samples are rapidly filtered and washed with ice-cold 50 mM Tris-HCl. Then filters are dried and counted for radioactivity in a scintillation counter (Topcount, Packard) using a scintillation cocktail (Microscint 0, Packard). Duplicate experiments were performed for each assay. The results are expressed as a percent inhibition of control radioligand specific binding.

Assay [2] concerns the target human A2A receptor (A2AR) (Homo sapiens, UniProt P29274). Kind of assay: Luciferase reporter assay (HEK293-A2AR-luc2p/CRE/Hygro cells, 3 nM CGS21680). The format is cell-based. The following applies: 3 nM CGS21680, 5 h incubation. The method, boiled down: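 Antagonist (0.1–10000 nM) and 3 nM CGS21680 were co-added for 5 h to stable HEK293-A2AR-luc2p/CRE cells, 18 h after seeding in 1% FBS medium containing adenosine deaminase. Luminescence was normalized to agonist alone (100%), and IC50 came from the dose–inhibition curve.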

Assay [3] addresses T2, human adenosine receptor A2A (A2AR) (Homo sapiens, UniProt P29274).
T2 construct: host or cells: HEK293 cells (membrane homogenates)
Kind of assay: Adenosine receptor binding assay, radioligand competitive binding, [3H]CGS21680. To be noted: membrane homogenates from HEK293 cells transfected with A2AR, 6 nM [3H]CGS21680. On the procedure: as §1

T2 sequence (P29274 whole entry): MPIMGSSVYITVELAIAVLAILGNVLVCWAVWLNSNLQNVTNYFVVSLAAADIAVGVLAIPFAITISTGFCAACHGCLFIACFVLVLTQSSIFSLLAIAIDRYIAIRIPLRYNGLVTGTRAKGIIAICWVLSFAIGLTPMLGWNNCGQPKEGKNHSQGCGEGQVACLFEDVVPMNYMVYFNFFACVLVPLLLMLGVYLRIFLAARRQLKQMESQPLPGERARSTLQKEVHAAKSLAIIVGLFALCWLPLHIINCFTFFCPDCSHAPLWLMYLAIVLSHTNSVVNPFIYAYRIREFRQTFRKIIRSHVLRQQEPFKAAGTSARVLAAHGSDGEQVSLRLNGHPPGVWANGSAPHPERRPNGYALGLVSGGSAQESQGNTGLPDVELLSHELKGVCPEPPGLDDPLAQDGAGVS
Chain of human A2A receptor (A2AR) (P29274 whole entry): as above

Consider `COCCOc1ccc(N2CCN(C(=O)Cn3ncc4c3nc(N)n3nc(-c5ccco5)nc43)CC2)cc1` [Compound D1, 2-(5-amino-2-(furan-2-yl)-7H-pyrazolo[4,3-e][1,2,4]triazolo[1,5-c]pyrimidin-7-yl)-1-(4-(4-(2-methoxyethoxy)phenyl)piperazin-1-yl)ethan-1-one], for which the figures for the Ki in assay [1] and in assay [3] were 52 nM and 1.8 nM, respectively. This molecule also displayed an IC50 in assay [2] of 27 nM. Taken in the same sequence, the figures for `CCCC(C(=O)N1CCN(c2ccc(OCCOC)cc2)CC1)n1ncc2c1nc(N)n1nc(-c3ccco3)nc21` (single isomer, unassigned) [Compound A5b, 2-(5-amino-2-(furan-2-yl)-7H-pyrazolo[4,3-e][1,2,4]triazolo[1,5-c]pyrimidin-7-yl)-1-(4-(4-(2-methoxyethoxy)phenyl)piperazin-1-yl)pentan-1-one] were 310 nM, 6 nM and 50 nM. For the molecule `CCCCC(C(=O)N1CCN(c2ccc(OCCOC)cc2)CC1)n1ncc2c1nc(N)n1nc(-c3ccco3)nc21` (single isomer, unassigned) [Compound A10b, 2-(5-amino-2-(furan-2-yl)-7H-pyrazolo[4,3-e][1,2,4]triazolo[1,5-c]pyrimidin-7-yl)-1-(4-(4-(2-methoxyethoxy)phenyl)piperazin-1-yl)hexan-1-one], the results for the Ki in assay [1] and in assay [3] were 260 nM and 5.6 nM, respectively. The same molecule returned an IC50 in assay [2] of 143 nM. For the molecule `COCCOc1ccc(N2CCN(C(=O)C(C)n3cc4c(nc(N)n5nc(-c6ccco6)nc45)n3)CC2)cc1` (single isomer, unassigned) [Compound C1b], the figures for the Ki in assay [1] and in assay [3] were 10 nM and 2.5 nM, respectively. Also, the IC50 in assay [2] turned out to be 12.7 nM. Taken in the same sequence, the figures for `COCCOc1ccc(N2CCN(C(=O)C(C)n3cc4c(nc(N)n5nc(-c6ccco6)nc45)n3)CC2)cc1` (single isomer, unassigned) [Compound C1a] were less than 0.5 nM, 6.2 nM and 57.1 nM. The matching figures for `COCCOc1ccc(N2CCN(C(=O)[C@](C)(c3ccccc3)n3ncc4c3nc(N)n3nc(-c5ccco5)nc43)CC2)cc1` [Compound A63a, (S)-2-(5-amino-2-(furan-2-yl)-7H-pyrazolo[4,3-e][1,2,4]triazolo[1,5-c]pyrimidin-7-yl)-1-(4-(4-(2-methoxyethoxy)phenyl)piperazin-1-yl)-2-phenylpropan-1-one]: 1130 nM, 3.1 nM and 8 nM.

For `CC(C)CC(C(=O)N1CCN(c2ccc(F)cc2F)CC1)n1ncc2c1nc(N)n1nc(-c3ccco3)nc21` (single isomer, unassigned) [Compound A22b], the Ki in assay [1] turned out to be 18 nM; in assay [3] it was 1.7 nM. Moreover, 0.6 nM corresponded to half-maximal inhibition in assay [2] (IC50).

On to `COCCOc1ccc(N2CCN(C(=O)[C@@](C)(c3ccccc3)n3ncc4c3nc(N)n3nc(-c5ccco5)nc43)CC2)cc1` [Compound A63b, (R)-2-(5-amino-2-(furan-2-yl)-7H-pyrazolo[4,3-e][1,2,4]triazolo[1,5-c]pyrimidin-7-yl)-1-(4-(4-(2-methoxyethoxy)phenyl)piperazin-1-yl)-2-phenylpropan-1-one], for which the Ki in assay [1] was determined as 153 nM; in assay [3], 1.5 nM. Moreover, the IC50 in assay [2] was 3.3 nM.

For the molecule `COCCOc1ccc(N2CCN(CCn3ncc4c3nc(N)n3nc(-c5ccco5)nc43)CC2)cc1` [Preladenant, preladenant, reference compound], the Ki in assay [1] was found to be 337 nM.

Consider `COCCOc1ccc(N2CCN(C(=O)C(CC(C)C)n3ncc4c3nc(N)n3nc(-c5ccco5)nc43)CC2)cc1` (single isomer, unassigned) [Compound A16b], for which the Ki in assay [1] came out at 770 nM; in assay [3], 15 nM. The molecule also registered an IC50 in assay [2] of 96.4 nM. The molecule `COCCOCCOc1ccc(N2CCN(C(=O)C(CC(C)C)n3ncc4c3nc(N)n3nc(-c5ccco5)nc43)CC2)cc1` (centres unmarked) [Compound A17, 2-(5-amino-2-(furan-2-yl)-7H-pyrazolo[4,3-e][1,2,4]triazolo[1,5-c]pyrimidin-7-yl)-1-(4-(4-(2-(2-methoxyethoxy)ethoxy)phenyl)piperazin-1-yl)-4-methylpentan-1-one] returned an IC50 in assay [2] of 1.1 nM. As for `COCCOc1ccc(N2CCN(C(=O)C(c3ccccc3)n3ncc4c3nc(N)n3nc(-c5ccco5)nc43)[C@@H](C)C2)cc1` (stereo partly drawn) [Compound A52, 2-(5-amino-2-(furan-2-yl)-7H-pyrazolo[4,3-e][1,2,4]triazolo[1,5-c]pyrimidin-7-yl)-1-((S)-4-(4-(2-methoxyethoxy)phenyl)-2-methylpiperazin-1-yl)-2-phenylethan-1-one], in assay [2], the IC50 amounted to 8.7 nM. Turning to `COCCOc1ccc(N2CCN(C(=O)C(C)(c3ccccc3)n3ncc4c3nc(N)n3nc(-c5ccco5)nc43)CC2)cc1` (centres unmarked) [Compound A63, 2-(5-amino-2-(furan-2-yl)-7H-pyrazolo[4,3-e][1,2,4]triazolo[1,5-c]pyrimidin-7-yl)-1-(4-(4-(2-methoxyethoxy)phenyl)piperazin-1-yl)-2-phenylpropan-1-one], half-maximal inhibition in assay [2] (IC50) required 6.2 nM. Regarding `CNC(=O)c1ccc(N2CCN(C(=O)C(C)(c3ccccc3)n3ncc4c3nc(N)n3nc(-c5ccco5)nc43)CC2)cc1` (centres unmarked) [Compound A92, 4-(4-(2-(5-amino-2-(furan-2-yl)-7H-pyrazolo[4,3-e][1,2,4]triazolo[1,5-c]pyrimidin-7-yl)-2-phenylpropanoyl)piperazin-1-yl)-N-methylbenzamide], the IC50 in assay [2] was found to be 2.7 nM. The same measure, in the same setting: to `CC(C(=O)N1CCN(c2ccc(OCCCN3CCCCC3)cc2)CC1)(c1ccccc1)n1ncc2c1nc(N)n1nc(-c3ccco3)nc21` (centres unmarked) [Compound A85, 2-(5-amino-2-(furan-2-yl)-7H-pyrazolo[4,3-e][1,2,4]triazolo[1,5-c]pyrimidin-7-yl)-2-phenyl-1-(4-(4-(3-(piperidin-1-yl)propoxy)phenyl)piperazin-1-yl)propan-1-one] belongs 11.6 nM; to `COCCOc1ccc(N2CCN(C(=O)C(c3ccccc3)n3ncc4c3nc(N)n3nc(-c5ccco5)nc43)CC2C)cc1` (single isomer, unassigned) [Compound A46b], 0.9 nM; to `COCCOc1ccc(N2CCN(C(=O)C(c3ccccc3C(F)(F)F)n3ncc4c3nc(N)n3nc(-c5ccco5)nc43)CC2)cc1` (centres unmarked) [Compound A38, 2-(5-amino-2-(furan-2-yl)-7H-pyrazolo[4,3-e][1,2,4]triazolo[1,5-c]pyrimidin-7-yl)-1-(4-(4-(2-methoxyethoxy)phenyl)piperazin-1-yl)-2-(2-(trifluoromethyl)phenyl)ethan-1-one], 0.6 nM. On the same count and under the same terms, as for `CCC(C(=O)N1CCN(c2ccc(OCCOCCOC)cc2)CC1)n1ncc2c1nc(N)n1nc(-c3ccco3)nc21` (centres unmarked) [Compound A8, 2-(5-amino-2-(furan-2-yl)-7H-pyrazolo[4,3-e][1,2,4]triazolo[1,5-c]pyrimidin-7-yl)-1-(4-(4-(2-(2-methoxyethoxy)ethoxy)phenyl)piperazin-1-yl)butan-1-one], the figure is 41.5 nM. `CCCCC(C(=O)N1CCN(c2ccc(OCCOC)cc2)CC1)n1ncc2c1nc(N)n1nc(-c3ccco3)nc21` (centres unmarked) [Compound A10, 2-(5-amino-2-(furan-2-yl)-7H-pyrazolo[4,3-e][1,2,4]triazolo[1,5-c]pyrimidin-7-yl)-1-(4-(4-(2-methoxyethoxy)phenyl)piperazin-1-yl)hexan-1-one]: in assay [2], the IC50 came out at 6.3 nM. Take `CC(C(=O)N1CCN(c2ccc(OCCN)cc2)CC1)n1ncc2c1nc(N)n1nc(-c3ccco3)nc21` (centres unmarked) [Compound A7, 2-(5-amino-2-(furan-2-yl)-7H-pyrazolo[4,3-e][1,2,4]triazolo[1,5-c]pyrimidin-7-yl)-1-(4-(4-(2-aminoethoxy)phenyl)piperazin-1-yl)propan-1-one]: the midpoint of inhibition in assay [2], the IC50, lay at 23.1 nM. Compared with the last molecule, the IC50 is about 3.7-fold higher.

The values are drawn from patent publication US20210300936A1, “PYRAZOLOTRIAZOLOPYRIMIDINE DERIVATIVES AS A2A RECEPTOR ANTAGONIST” (BEIGENE, LTD., priority 2018, published 2021).
